# Measurements: patent US11969476B2, “Antibody molecule-drug conjugates and uses thereof” (priority 2020, dated 2024)
# Ends that are not written are not given here.
# Columns and labels:
# [1] = test system: P. aeruginosa BAA-2108; design: key: R = Resistant; S = Suspectible; I = Intermediate; NT = Note Tested; conditions: strain BAA-2108, isolated from human sputum; cited from earlier work
# [2] = test system: P. aeruginosa BAA-2109; design: key: R = Resistant; S = Suspectible; I = Intermediate; NT = Note Tested; conditions: strain BAA-2109, isolated from human sputum; cited from earlier work
# [3] = test system: P. aeruginosa BAA-2111; design: key: R = Resistant; S = Suspectible; I = Intermediate; NT = Note Tested; conditions: strain BAA-2111, isolated from human sputum; cited from earlier work
# [4] = test system: P. aeruginosa BAA-2112; design: key: R = Resistant; S = Suspectible; I = Intermediate; NT = Note Tested; conditions: strain BAA-2112, isolated from human sputum; cited from earlier work
# [5] = test system: P. aeruginosa BAA-2113; design: key: R = Resistant; S = Suspectible; I = Intermediate; NT = Note Tested; conditions: strain BAA-2113, isolated from human sputum; cited from earlier work
# [6] = test system: P. aeruginosa BAA-2114; design: key: R = Resistant; S = Suspectible; I = Intermediate; NT = Note Tested; conditions: strain BAA-2114, isolated from human sputum; cited from earlier work
# [7] = Cytotoxicity to mammalian cells; conditions: human, 293T cells
# [8] = in vitro; conditions: human, Cytotox CC50
# [9] = test system: P. aeruginosa BAA-2110; design: key: R = Resistant; S = Suspectible; I = Intermediate; NT = Note Tested; conditions: strain BAA-2110, isolated from human sputum; cited from earlier work
# [10] = LC-MS; 10% human serum (FIG. 8)
# Procedure: Assessment of Serum Stability. […] Twenty μl of each test article was placed in a 2.0 ml round bottom microfuge tube. […] Assay tubes were placed at 37° C. in a rotating rack between time-points. […] Supernatant from each tube was collected and frozen at −20° C. for analysis. Samples were harvested and processed at various time-points up to 6 hours.
# [11] = test system: 293T; assay: Cytotoxicity to mammalian cells
Compound,antibiotic resistance phenotype [1],antibiotic resistance phenotype [2],antibiotic resistance phenotype [3],antibiotic resistance phenotype [4],antibiotic resistance phenotype [5],antibiotic resistance phenotype [6],CC50 [7],CC50 [8],antibiotic resistance phenotype [9],"CC50 ([7]; Cytotox CC50, concentration at which 50% cytotoxicity of mammalian cells is observed)",half-life in the presence of serum [10],cytotoxicity to 293T relative to the MIC [11]
CC(=O)OCC1=C(C(=O)O)N2C(=O)[C@@H](NC(=O)Cc3cccs3)[C@H]2SC1 [Cefalotin],R,R,R,R,R,R,,,,,,
CO/N=C(\C(=O)N[C@@H]1C(=O)N2C(C(=O)OC(C)OC(C)=O)=C(COC(N)=O)CS[C@H]12)c1ccco1 (stereo partly drawn) [Cefuroxime Axetil],R,R,R,R,R,R,,,,,,
GGGGIGKFLKKAKKFGKAFVKILKK [Peptide P261],,,,,,,250 µg/mL,,,,,
GGGKRFKKFFKKLKNSVKKRAKKFFKKPRVIGVSIPF [Peptide P296],,,,,,,400 µg/mL,,,,,
GGGGRFKRFRKKFKKLFKKLSPVIPLLHLG [Peptide P267],,,,,,,,70 µg/mL,,,,
CO/N=C(\C(=O)N[C@@H]1C(=O)N2C(C(=O)O)=C(COC(C)=O)CS[C@H]12)c1csc(N)n1 [Cefotaxime],R,R,R,R,R,R,,,R,,,
CN(C)c1cc(NC(=O)CNC(C)(C)C)c(O)c2c1C[C@H]1C[C@H]3[C@H](N(C)C)C(O)=C(C(N)=O)C(=O)[C@@]3(O)C(O)=C1C2=O [Tigecycline],R,R,R,R,R,R,,,R,,,
NC[C@H]1O[C@H](O[C@H]2[C@H](O)[C@@H](O[C@H]3O[C@H](CO)[C@@H](O)[C@H](N)[C@H]3O)[C@H](N)C[C@@H]2N)[C@H](N)C[C@@H]1O [Tobramycin],,S,S,S,S,S,,,S,,,
GGGGLRKRLRKFRNKIKEKLKKIGQKIQGLLPKLA [Peptide P271],,,,,,,,,,250 µg/mL,,
CC1(C)S[C@@H]2[C@H](NC(=O)[C@H](N)c3ccccc3)C(=O)N2[C@H]1C(=O)O [Ampicillin],R,R,R,R,R,R,,,R,,,
Gentamicin,I,S,S,S,S,S,,,I,,,
Cc1nnc(SCC2=C(C(=O)O)N3C(=O)[C@@H](NC(=O)Cn4cnnn4)[C@H]3SC2)s1 [Cefazolin],,R,R,R,R,R,,,R,,,
GGGRGLRRLGRKIAHGVKKYGPTVLRIIKKYG [Peptide P294],,,,,,,,120 µg/mL,,,,
Trimethoprim/Sulfamethoxazole,R,R,R,R,R,R,,,R,,,
GGGKFFRKLKKSVKKRAKEFFKKPRVIGVSIPF [Peptide P297],,,,,,,780 µg/mL,,,,~20 min,~200 fold
CO[C@@]1(NC(=O)Cc2cccs2)C(=O)N2C(C(=O)O)=C(COC(N)=O)CS[C@@H]21 [Cefoxitin],R,R,R,R,R,R,,,R,,,
CC[C@H](C)[C@H](NC(=O)[C@H](CCCCN)NC(=O)[C@H](CCC(=O)O)NC(=O)[C@H](CCCCN)NC(=O)[C@H](CO)NC(=O)[C@H](CCCCN)NC(=O)[C@H](CCCNC(=N)N)NC(=O)[C@H](Cc1ccccc1)NC(=O)[C@H](Cc1ccccc1)NC(=O)[C@H](CC(=O)O)NC(=O)CNC(=O)[C@H](CC(C)C)NC(=O)[C@H](CC(C)C)NC(=O)CNC(=O)CNC(=O)CN)C(=O)NCC(=O)N[C@@H](CCCCN)C(=O)N[C@@H](CCC(=O)O)C(=O)N[C@@H](Cc1ccccc1)C(=O)N[C@@H](CCCCN)C(=O)N[C@@H](CCCNC(=N)N)C(=O)N[C@H](C(=O)N[C@H](C(=O)N[C@@H](CCC(N)=O)C(=O)N[C@@H](CCCNC(=N)N)C(=O)N[C@H](C(=O)N[C@@H](CCCCN)C(=O)N[C@@H](CC(=O)O)C(=O)N[C@@H](Cc1ccccc1)C(=O)N[C@@H](CC(C)C)C(=O)N[C@@H](CCCNC(=N)N)C(=O)N[C@@H](CC(N)=O)C(=O)N[C@@H](CC(C)C)C(=O)N[C@H](C(=O)N1CCC[C@H]1C(=O)N[C@@H](CCCNC(=N)N)C(=O)N[C@H](C(=O)N[C@@H](CCC(=O)O)C(=O)N[C@@H](CO)C(=O)O)[C@@H](C)O)C(C)C)[C@@H](C)CC)C(C)C)[C@@H](C)CC [Peptide P265],,,,,,,,90 µg/mL,,,,
CO/N=C(\C(=O)N[C@@H]1C(=O)N2C(C(=O)O)=C(COC(N)=O)CS[C@H]12)c1ccco1 [Cefuroxime],R,R,R,R,R,R,,,,,,
O=C(O)c1cn(C2CC2)c2cc(N3CCNCC3)c(F)cc2c1=O [Ciprofloxacin],S,S,S,S,S,R,,,S,,,
CO/N=C(\C(=O)N[C@@H]1C(=O)N2C(C(=O)O)=C(CSc3nc(=O)c(=O)[nH]n3C)CS[C@H]12)c1csc(N)n1 [Ceftriaxone],,R,R,R,R,R,,,,,,
Piperacillin/Tazobactam,,S,S,S,S,S,,,,,,
NCC[C@H](O)C(=O)N[C@@H]1C[C@H](N)[C@@H](O[C@H]2O[C@H](CN)[C@@H](O)[C@H](O)[C@H]2O)[C@H](O)[C@H]1O[C@H]1O[C@H](CO)[C@@H](O)[C@H](N)[C@H]1O [Amikacin],S,S,S,S,S,S,,,S,,,
Amoxicillin/Clavulanic Acid,R,R,R,R,R,R,,,,,,
